Values joined by “and” are separate entries in the source; they are usually repeats but may differ in a detail not shown here. Equal values may be shown once. Read-outs that look alike come from different tables or passages of the source.
Columns and labels:
BCL-2 G101V = experiment: Steady-state competition SPR against immobilised BIMBH3 peptide, BCL-2 G101V; type: binding, human; conditions: for Ki: BCL-2 G101V
Protocol: SPR experiments were performed as previously described. […] The lowest concentrations used in direct binding experiments were 1 nM for BIAcore 4000 and 0.1 nM for BIAcore S200 instruments, concentrations below these were below the sensitivity thresholds for the instruments. […] Direct binding experiments were fitted to a 1:1 binding site kinetic model, fitting on and off rates, in BIAevaluation software. For competition experiments steady-state responses were determined in BIAevaluation software according to the software defaults in affinity evaluation mode averaging responses for 5 sec. […] All affinity measurements were performed in at least two independent experiments using independent protein preparations.

[1] = test system: KMS-12-PE cells expressing BCL-2 G101V; experiment: CellTiter-Glo cell viability, KMS-12-PE cells overexpressing BCL-2 G101V; conditions: read-out: S55746 LC50, KMS-12-PE overexpressing BCL-2 G101V, 24 h, mean ± SD, n = 3
Protocol: KMS-12-PE (sourced from DSMZ in 2013; Cat#ACC606) were cultured with HTRPMI with 10% fetal bovine serum. Early passages (P5-P7) after purchase were cryopreserved and thawed for the experiments. Cells beyond passage 15 were not used. Monthly tests for mycoplasma were consistently negative (MycoAlert mycoplasma detection kit; Lonza, GA, USA).
Cell viability 24 h after treatment was then determined using the CellTiter-Glo assay (Promega, Cat#G9241). […] Experiments were performed on three separate occasions; the data is shown as the means ± SD of those three independent experiments.

O=C(c1cc(-c2cc3c(cc2C(=O)N2Cc4ccccc4C[C@H]2CN2CCOCC2)OCO3)n2c1CCCC2)N(c1ccccc1)c1ccc(O)cc1 [S55746]
Raw data values in Figure 3g (SPR response) (BCL-2 G101V; S55746 concentration 40, BCL-2 concentration 60 nM, independent experiment 3): 48.7177
Raw data values in Figure 3g (SPR response) (BCL-2 G101V; S55746 concentration 40, BCL-2 concentration 70 nM, independent experiment 1): 85.9498
Raw data values in Figure 3g (SPR response) (BCL-2 G101V; S55746 concentration 40, BCL-2 concentration 70 nM, independent experiment 2): 301.246
Raw data values in Figure 3g (SPR response) (BCL-2 G101V; S55746 concentration 40, BCL-2 concentration 70 nM, independent experiment 3): 49.6061
Raw data values in Figure 3g (SPR response) (BCL-2 G101V; S55746 concentration 40, BCL-2 concentration 80 nM, independent experiment 1): 87.455
Raw data values in Figure 3g (SPR response) (BCL-2 G101V; S55746 concentration 40, BCL-2 concentration 80 nM, independent experiment 2): 307.892
Raw data values in Figure 3g (SPR response) (BCL-2 G101V; S55746 concentration 40, BCL-2 concentration 80 nM, independent experiment 3): 50.2962
Raw data values in Figure 3g (SPR response) (BCL-2 G101V; S55746 concentration 40, BCL-2 concentration 100 nM, independent experiment 1): 89.2588
Raw data values in Figure 3g (SPR response) (BCL-2 G101V; S55746 concentration 40, BCL-2 concentration 100 nM, independent experiment 2): 318.485
Raw data values in Figure 3g (SPR response) (BCL-2 G101V; S55746 concentration 40, BCL-2 concentration 100 nM, independent experiment 3): 51.3212
Raw data values in Figure 3g (SPR response) (BCL-2 G101V; S55746 concentration 40, BCL-2 concentration 150 nM, independent experiment 1): 91.8217
Raw data values in Figure 3g (SPR response) (BCL-2 G101V; S55746 concentration 40, BCL-2 concentration 150 nM, independent experiment 2): 334.001
Raw data values in Figure 3g (SPR response) (BCL-2 G101V; S55746 concentration 40, BCL-2 concentration 150 nM, independent experiment 3): 52.4759
Raw data values in Figure 3g (SPR response) (BCL-2 G101V; S55746 concentration 40, BCL-2 concentration 200 nM, independent experiment 1): 93.5739
Raw data values in Figure 3g (SPR response) (BCL-2 G101V; S55746 concentration 40, BCL-2 concentration 250 nM, independent experiment 2): 347.773
Raw data values in Figure 3g (SPR response) (BCL-2 G101V; S55746 concentration 40, BCL-2 concentration 250 nM, independent experiment 3): 53.5471
Raw data values in Figure 3g (SPR response) (BCL-2 G101V; S55746 concentration 60, BCL-2 concentration 10 nM, independent experiment 1): 47.4597
Raw data values in Figure 3g (SPR response) (BCL-2 G101V; S55746 concentration 60, BCL-2 concentration 10 nM, independent experiment 2): 98.8052
Raw data values in Figure 3g (SPR response) (BCL-2 G101V; S55746 concentration 60, BCL-2 concentration 20 nM, independent experiment 1): 62.0582
Raw data values in Figure 3g (SPR response) (BCL-2 G101V; S55746 concentration 60, BCL-2 concentration 20 nM, independent experiment 2): 156.985
Raw data values in Figure 3g (SPR response) (BCL-2 G101V; S55746 concentration 60, BCL-2 concentration 30 nM, independent experiment 1): 69.7854
Raw data values in Figure 3g (SPR response) (BCL-2 G101V; S55746 concentration 60, BCL-2 concentration 30 nM, independent experiment 2): 196.195
Raw data values in Figure 3g (SPR response) (BCL-2 G101V; S55746 concentration 60, BCL-2 concentration 40 nM, independent experiment 1): 76.161
Raw data values in Figure 3g (SPR response) (BCL-2 G101V; S55746 concentration 60, BCL-2 concentration 40 nM, independent experiment 2): 224.521
Raw data values in Figure 3g (SPR response) (BCL-2 G101V; S55746 concentration 60, BCL-2 concentration 50 nM, independent experiment 1): 79.3118
Raw data values in Figure 3g (SPR response) (BCL-2 G101V; S55746 concentration 60, BCL-2 concentration 50 nM, independent experiment 2): 244.821
Raw data values in Figure 3g (SPR response) (BCL-2 G101V; S55746 concentration 60, BCL-2 concentration 60 nM, independent experiment 1): 82.6237
Raw data values in Figure 3g (SPR response) (BCL-2 G101V; S55746 concentration 60, BCL-2 concentration 60 nM, independent experiment 2): 261.933
Raw data values in Figure 3g (SPR response) (BCL-2 G101V; S55746 concentration 60, BCL-2 concentration 70 nM, independent experiment 1): 84.8163
Raw data values in Figure 3g (SPR response) (BCL-2 G101V; S55746 concentration 60, BCL-2 concentration 70 nM, independent experiment 2): 275.69
Raw data values in Figure 3g (SPR response) (BCL-2 G101V; S55746 concentration 60, BCL-2 concentration 80 nM, independent experiment 1): 85.9361
Raw data values in Figure 3g (SPR response) (BCL-2 G101V; S55746 concentration 60, BCL-2 concentration 80 nM, independent experiment 2): 286.55
Raw data values in Figure 3g (SPR response) (BCL-2 G101V; S55746 concentration 60, BCL-2 concentration 100 nM, independent experiment 1): 88.8819
Raw data values in Figure 3g (SPR response) (BCL-2 G101V; S55746 concentration 60, BCL-2 concentration 100 nM, independent experiment 2): 303.493
Raw data values in Figure 3g (SPR response) (BCL-2 G101V; S55746 concentration 60, BCL-2 concentration 150 nM, independent experiment 1): 91.2891
Raw data values in Figure 3g (SPR response) (BCL-2 G101V; S55746 concentration 60, BCL-2 concentration 150 nM, independent experiment 2): 325.735
Raw data values in Figure 3g (SPR response) (BCL-2 G101V; S55746 concentration 60, BCL-2 concentration 200 nM, independent experiment 1): 93.4484
Raw data values in Figure 3g (SPR response) (BCL-2 G101V; S55746 concentration 60, BCL-2 concentration 250 nM, independent experiment 2): 343.304
Raw data values in Figure 3g (SPR response) (BCL-2 G101V; S55746 concentration 80, BCL-2 concentration 10 nM, independent experiment 3): 22.8907
Raw data values in Figure 3g (SPR response) (BCL-2 G101V; S55746 concentration 80, BCL-2 concentration 20 nM, independent experiment 3): 32.1933
Raw data values in Figure 3g (SPR response) (BCL-2 G101V; S55746 concentration 80, BCL-2 concentration 30 nM, independent experiment 3): 37.5379
Raw data values in Figure 3g (SPR response) (BCL-2 G101V; S55746 concentration 80, BCL-2 concentration 40 nM, independent experiment 3): 41.1001
Raw data values in Figure 3g (SPR response) (BCL-2 G101V; S55746 concentration 80, BCL-2 concentration 50 nM, independent experiment 3): 43.4737
Raw data values in Figure 3g (SPR response) (BCL-2 G101V; S55746 concentration 80, BCL-2 concentration 60 nM, independent experiment 3): 45.424
Raw data values in Figure 3g (SPR response) (BCL-2 G101V; S55746 concentration 80, BCL-2 concentration 70 nM, independent experiment 3): 46.908
Raw data values in Figure 3g (SPR response) (BCL-2 G101V; S55746 concentration 80, BCL-2 concentration 80 nM, independent experiment 3): 48.0972
Raw data values in Figure 3g (SPR response) (BCL-2 G101V; S55746 concentration 80, BCL-2 concentration 100 nM, independent experiment 3): 49.7546
Raw data values in Figure 3g (SPR response) (BCL-2 G101V; S55746 concentration 80, BCL-2 concentration 150 nM, independent experiment 3): 51.7109
Raw data values in Figure 3g (SPR response) (BCL-2 G101V; S55746 concentration 80, BCL-2 concentration 250 nM, independent experiment 3): 53.091
Ki (BCL-2 G101V; read-out: S55746 KI (mean), competition vs BIMBH3 SPR surface, mean ± SD, n ≥ 2): 36 nM and 35.7 nM
Ki (BCL-2 G101V; read-out: S55746 KI, single independent experiments, independent experiments 1-3): 28.4 nM and 49.8 nM and 29 nM
CC50 [1]: 2700 ± 430 nM
